This test has as its target T1, PLA2 (Homo sapiens, UniProt P14555).
T1 construct: The enzyme is isolated from human platelets; from tissue; host or cells: human platelets
T1 sequence (P14555 21-144): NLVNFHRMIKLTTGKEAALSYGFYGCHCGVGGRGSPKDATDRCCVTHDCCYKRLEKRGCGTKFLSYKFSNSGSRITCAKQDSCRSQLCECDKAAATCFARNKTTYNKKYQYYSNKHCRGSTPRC
The experiment in a line: PLA2 Inhibition Assay (14C-oleate labeled E. coli membrane substrate). Format: biochemical. Particulars: Table 2, Structure 14 (Type IA); 100 μM; enzyme isolated from human platelets. On the procedure:
The method used is similar to that reported by Franson, et al. [Jesse, R. L. and Franson R. C., Biochim. Biophys. Acta 575:467-470 (1979); Franson, R. C., Patriarca, P., and Elsback, P., J. Lipid Res. 15: 380-388 (1974)]. The enzyme is isolated from human platelets. The substrate used consists of ^14 C-oleate labeled Escherichia coli membranes. E. coli cells are grown in the presence of ^14 C-oleic acid and then autoclaved to prepare the membranes.
Various concentrations of test compounds are pre-incubated with PLA2 (3.6 μg/mL in a buffer consisting of 25 mM HEPES (pH 7)), 150 mM NaCl, 5.0 mM CaCl2, and 10% DMSO (v/v, test compound solvent) at 37° C. for 7 minutes. The E. coli membrane substrate is then added (0.1 mM phospholipid, 0.005 μCi ^14 C) and the reaction is then incubated at 37° C. for 30 minutes. The reaction is then terminated by the addition of 1.9 mL tetrahydrofuran (THF), and the entire solution is applied to a solid-phase extraction column (aminopropyl resin, Analytichem). The column is rinsed with an additional 1 mL of THF. The free fatty acid product of the reaction is then eluted from the column with 1 mL of 2% acetic acid in THF and collected in a scintillation vial. The amount of free fatty acid product is determined by liquid scintillation counting. The amount of inhibition produced by the test compound is calculated by comparing the counts obtained in the presence of the compound to those obtained in its absence (solvent only). Background counts were determined by performing incubations in the absence of enzyme.
Percent inhibition is determined by the equation: [formula]

Regarding `CCCCCCCCCCOc1ccccc1/C=C(/C=C\C(=O)O)c1cccc(C(F)(F)F)c1` [Structure 14c, (2Z),(4Z)-4-(3-Trifluoromethylphenyl)-5-(2-decyloxyphenyl)-2,4-pentadienoic acid], the “% Inhibition of PLA2 at 100 μM” value is reported as 92%.

The term inhibition denotes the change of the read-out against control, counted positive when it falls. Read a high inhibition as a strong effect. As to `CC(C)=CCC/C(C)=C/COc1ccc(/C=C(/C=C\C(=O)O)c2cccc(C(F)(F)F)c2)cc1` [Structure 14d], the inhibition at 100 µM was 98%.

On to `CCCCCCCCCCOc1ccc(/C=C(/C=CC(=O)O)c2cccc(C(F)(F)F)c2)cc1OCCCCCCCCCC` [Structure 14e, (2Z),(4Z)-4-(3-Trifluoromethylphenyl)-5-(3,4-bisdecyloxyphenyl)-2,4-pentadienoic acid/(2E),(4Z)-4-(3-Trifluoromethylphenyl)-5-(3,4-bisdecyloxyphenyl)-2,4-pentadienoic acid], for which the inhibition at 100 µM is 99%.

On to `CC1(C)CCC(C)(C)c2cc3cc(/C=C(/C=C\C(=O)O)c4cccc(C(F)(F)F)c4)ccc3cc21` [Structure 14f, (2Z), (4Z)-4-(3-trifluoromethylphenyl)-5-(5,6,7,8-tetrahydro-5,5,8,8-tetramethyl-2-anthracenyl)-2,4-pentadienoic acid], for which the inhibition at 100 µM came out at 71%.

With `CC1(C)CCC(C)(C)c2cc(CC/C=C(/C=C\C(=O)O)c3cccc(C(F)(F)F)c3)ccc21` [Structure 14g, (2Z),(4Z)-4-(3-Trifluoromethylphenyl)-7-(5,6,7,8-tetrahydro-5,5,8,8-tetramethyl-2-naphthalenyl)-2,4-heptadienoic acid], at 100 µM the inhibition was 96%.

In the case of `CC1(C)CCC(C)(C)c2cc(CC/C=C(/C=C\C(=O)O)c3ccc(F)cc3)ccc21` [Structure 14h, (2Z),(4Z)-4-(4-Fluorophenyl)-7-(5,6,7,8-tetrahydro-5,5,8,8-tetramethyl-2-naphthalenyl)-2,4-heptadienoic acid], the inhibition at 100 µM was 96%.

`CC1(C)CCC(C)(C)c2cc(CC/C=C(/C=C\C(=O)O)c3cccc(F)c3)ccc21` [Structure 14i, (2Z),(4Z)-4-(3-Fluorophenyl)-7-(5,6,7,8-tetrahydro-5,5,8,8-tetramethyl-2-naphthalenyl)-2,4-heptadienoic acid]: testing at 100 µM gave an inhibition of 96%.

Take `CC1(C)CCC(C)(C)c2cc(CC/C=C(/C=C\C(=O)O)c3ccccc3)ccc21` [Structure 14j, (2Z),(4Z)-4-Phenyl-7-(5,6,7,8-tetrahydro-5,5,8,8-tetramethyl-2-naphthalenyl)-2,4-heptadienoic acid]: the inhibition at 100 µM amounted to 92%.

Regarding `COc1ccc(CC/C=C(/C=C\C(=O)O)c2cccc(C(F)(F)F)c2)cc1C12CC3CC(CC(C3)C1)C2` [Structure 14k, (2Z),(4Z)-4-(3-Trifluoromethylphenyl)-7-[3-(1-adamantyl)-4-methoxyphenyl]-2,4-heptadienoic acid], testing at 100 µM gave an inhibition of 99%.

`COc1ccc(CC/C=C(/C=C\C(=O)O)c2ccccc2)cc1C12CC3CC(CC(C3)C1)C2` [Structure 14l, (2Z),(4Z)-4-Phenyl-7-[3-(1-adamantyl)-4-methoxyphenyl]-2,4-heptadienoic acid] registered an inhibition at 100 µM of 99%.

Take `COc1cc(CC/C=C(/C=C\C(=O)O)c2cccc(C(F)(F)F)c2)ccc1C12CC3CC(CC(C3)C1)C2` [Structure 14m, (2Z),(4Z)-4-(3-Trifluoromethylphenyl)-7-[4-(1-adamantyl)-3-methoxyphenyl]-2,4-heptadienoic acid]: testing at 100 µM gave an inhibition of 99%.

Consider `COc1cc(CC/C=C(/C=C\C(=O)O)c2ccccc2)ccc1C12CC3CC(CC(C3)C1)C2` [Structure 14n, (2Z),(4Z)-4-Phenyl-7-[4-(1-adamantyl)-3-methoxyphenyl]-2,4-heptadienoicacid], for which testing at 100 µM gave an inhibition of 100%.

`COc1ccc(CC/C=C(/C=C\C(=O)O)c2cccc(C(F)(F)F)c2)c(C23CC4CC(CC(C4)C2)C3)c1` [Structure 14o, (2Z),(4Z)-4-(3-Trifluoromethylphenyl)-7-[2-(1-adamantyl)-4-methoxyphenyl]-2,4-heptadienoic acid] showed an inhibition at 100 µM of 99%.

These data come from patent publication US5436369A, “Alicyclic phospholipase A2 inhibitors” (Bristol-Myers Squibb Company, priority 1994, dated 1995).
